Reference: patent US20050080140A1, “Method for treating or preventing inflammatory disorders” (AnGes MG, Inc., priority 2003, published 2005)
Entries after “also recorded” stand apart in the source; their conditions may differ.

Tests used:
[1] = test system: promoter region of the human IL-13 gene; assay: IL-13 promoter-luciferase reporter assay; assay type: cell-based; details: 10 μM cPGI, 24 h
Source text: Promoter sequences of human IL-13 gene containing PPRE and GATA elements were isolated from human leukocyte genomic DNA by polymerase chain reaction (PCR) with primers A (5′-[…]-3′ (SEQ ID NO: 3); sense) and D (5′-[…]-3′ (SEQ ID No: 4); antisense) for the 1.3 kbp fragment, and B (5′-[…]-3′ (SEQ ID NO: 5); sense) and D for the 0.4 kbp fragment. Each fragment was inserted into the MluI-XbaI site of pGL3-promoter vector (Promega, Madison, Wis.). Human vascular endothelial cells (1.2×10^4 cells/cm^2) were cotransfected with 0.2 μg of IL-13-luciferase reporter vector, 0.1 μg of β-galactosidase expression vector and 0.7 μg of expression vector for PPARδwt, PPARδdn, CREBwt, CREBdn or mock vector by use of TransIT LT-1. After 17 h of transfection, cells were incubated in fresh EGM-2 containing 2% FBS. After another 24 h, the cells were washed with PBS, and cultured in EGF-2 containing 2% FBS with 10 μM cPGI for 24 h to quantify luciferase and β-galactosidase activities as described previously (Hatae et al., J. Biol. Chem. (2001) 276: 46260-7). The luciferase activity of the extract was normalized to β-galactosidase activity.

[2] = test system: IL-13; assay: IL-13 ELISA of culture medium of human vascular endothelial cells; assay type: cell-based; details: 24 h; for endogenous IL-13 expression in PGI2-deprived cells: HUVEC treated with PGIS siRNA, cPGI 10 μM, FIG. 6C
Protocol: Human vascular endothelial cells (1.2×10^4 cells/cm^2) were cultured in EGM-2 containing 2% FBS and several concentrations of cPGI with or without TNF-α for 24 h. Incubation media were collected and stored at −80° C. before assay. Amounts of IL-13 were measured with human IL-13 ELISA system (Amersham Pharmacia Biotech, Buckinghamshire, UK) and amounts of PGI2 were measured as the amounts of 6-keto-PGI1α, a stable metabolite of PGI2, with 6-keto-PGI1α ELISA kit (Cayman Chemical Co., Ann Arbor, Mich.) according to the manufacturers' instructions.
siRNA duplexes with the following sense and antisense sequences were made: PGIS1, 5′-[…]-3′ (SEQ ID NO: 12; sense) and 5′-[…]-3′ (SEQ ID NO: 13; antisense); PGIS2, 5′-[…]-3′ (SEQ ID NO: 14; sense) and 5′-[…]-3′ (SEQ ID NO: 15; antisense); PGIS3, 5′-[…]-3′ (SEQ ID NO: 16; sense) and 5′-[…] (SEQ ID NO: 17; antisense); and PGIS4, 5′-[…]-3′ (SEQ ID NO:, 18; sense) and 5′-[…]-3′ (SEQ ID NO: 19; antisense). siRNAs were synthesized and annealed by Dharmacon Research Inc. (Lafayette, CO). Control non-silencing siRNA, a duplex of sense (5′-UUCUCCGAACGUGUCACGUdTdT-3′; SEQ ID NO: 20) and antisense (5′-ACGUGACACGUUCGGAGAAdTdT-3′; SEQ ID NO: 21) sequences, was purchase from Qiagen (Valencia, Calif.). The cells were initially transfected with 200 pmol per well of the annealed RNA mixture or the same amount of control siRNA using LipofectAMINE2000 (Invitrogen), and 12 h later secondly transfected with the same amount of siRNAs using HVJ-liposome transfection kit (GenomeONE; Ishihara Sangyo, Osaka, Japan) according to the manufacturers' instructions. The cells were retransfected with the siRNAs every 3 days using LipofectAMINE2000 and HVJ-liposome, and used for analyses 10 days after transfection. Microsomal fractions of the cells were prepared and analyzed by immunoblotting with anti-PGIS P4 polyclonal antibody as described previously (Hatae et al., J. Biol. Chem. (2001) 276: 46260-7). The cells treated with siRNAs for 10 days were cultured in fresh EGM-2 containing 2% FBS and TNF-α (0, 10 ng/ml). with or without cPGI (10 μM) for 24 h. The incubation media were collected, and amounts of 6-keto-PGI1α or IL-13 were measured with ELISA kit.

[3] = 413 bp IL-13 promoter fragment, FIG. 3

cPGI-dependent IL-13 promoter luciferase activity on coexpression of dominant negative CREB (CREBdn) [1, 3]: no effect
cPGI-dependent increase of IL-13 promoter luciferase activity on cotransfection of dominant negative PPARδ (PPARδdn) [1, 3]: suppressed
luciferase activity of reporter vector containing GATA sequences without PPREs ([1]; HUVEC, FIG. 2B): increased only weakly
luciferase activity of reporter vectors containing the PPRE consensus region of the IL-13 promoter ([1]; HUVEC, FIG. 2B): significantly increase
luciferase activity of vectors from which the PPRE consensus sequence region had been deleted ([1]; HUVEC, FIG. 2B): not increased
SMILES: CCCCC[C@H](O)/C=C/[C@@H]1[C@H]2C/C(=C/CCCC(=O)O)C[C@H]2C[C@H]1O [cPGI, carbaprostacyclin]
endogenous IL-13 expression in PGI2-deprived cells [2]: significantly increased
endogenous IL-13 expression in PGI2-deprived cells ([2]; listed as carbaprostacyclin): significantly induced
production of IL-13, exogenous cPGI added to TNF-α ([2]; HUVEC, TNF-α 0-10 ng/ml with cPGI 0, 2 or 10 μM, dose-dependent, FIG. 4C): enhanced
IL-13 protein in the culture medium (ELISA) ([2]; HUVEC, cPGI 0, 1, 10 and 100 μM, FIG. 1B): detectable; also recorded: dose-dependent
